According to patent EP0399716A1, “Hypoallergenic steroidal anesthetic/hypnotic compositions” (INNOVET, INC., priority 1989, dated 1990):

Test system: horses
Experiment: Alfaxalone/HPCD anesthesia in the horse
Description: In the first stage, two horses were anesthetized after heavy premedication with xylazine (0.6 mg/kg). […] Heart rate, respiratory rate, blood pressure, ECG and ventilation were monitored throughout the anesthesia period.
The same parameters as in the first stage were monitored.
Cardiopulmonary parameters were monitored as before.
To provide some comparison in the above stages, the two horses were anesthetized with thiamylal sodium (8 mg/kg) after the same premedication as before and a similar monitoring regime followed.
A third horse was obtained and the same regimen was followed as in the third stage, but three "top-ups" of one-third induction dose were administered at 10 minute intervals. Similar monitoring as above was continued.
Blood pressure was measured from an acutely placed antraarterial catheter and read through a transducer/digital readout system which included an ECG tracing oscilloscope.

Structure (SMILES): CC(=O)[C@H]1CC[C@H]2[C@@H]3CC[C@H]4C[C@H](O)CC[C@]4(C)[C@H]3C(=O)C[C@]12C (stereo in doubt) [alfaxalone, 3α-hydroxy-5α-pregnane-11,20-dione]
- recoveries classified as excellent (alfaxalone alone recoveries): Four of the five

Structure (SMILES): C=CCC1(C(C)CCC)C(=O)N=C(S)NC1=O (stereo not drawn) [thiamylal, thiamylal sodium]
- blood pressure effect (after xylazine premedication): the same effect

Structure (SMILES): Cc1cccc(C)c1N=C1NCCCS1 [xylazine]
- sedation (0.6 mg/kg i.v.): good sedation without ataxia
